Results: US20260335450A1, “TARGETED PROTEIN DEGRADATION THROUGH SITE-SPECIFIC RECRUITMENT OF UBIQUITIN LIGASE” (University of Pittsburgh - Of the Commonwealth System of …, priority 2023, published 2026)
Like-named read-outs stand apart in the source and are kept apart here. Residues, ends and D or L forms follow the SMILES beside them. *: point of attachment. Cbz = O=C(OCc1ccccc1)*

Columns and labels:
MKP3 = settings: cited from earlier work
DUSP1 = settings: cited from earlier work
mCherry-EGFP-Y151TetF [1] = assay: Degradation mechanism: proteasome inhibitor pre-treatment; format: cell-based; settings: 10 μM inhibitor, 4 h pre-incubation; then 10 μM sTCO-PEG2-CRBN overnight
Protocol: FIGS. 16A-16B. Degradation mechanism of sTCO-PEG2-CRBN. FIG. 16A) The degradation of mCherry-EGFP-Y151TetF was reduced when cells were pre-treated with proteasome inhibitor MG132 or epoxomicin, validating that sTCO-PEG2-CRBN induced degradation is mediated by the proteasome.
For mechanistic insight into sTCO-PEG2-CRBN degradation (FIG. 16) cells were transfected as described above. A 10 μM working solution of media containing either MG132 or epoxomicin was made by adding 1 μL of the respective proteasome inhibitor (10 mM in DMSO) into 999 μL of complete medium. Following removal of TetF, 200 μL of media supplemented with either MG132, epoxomicin, or DMSO was added to each well and the cells were incubated for 4 h. Next, a solution containing 50 μM of sTCO-PEG2-CRBN was made by adding 5 μL of sTCO-PEG2-CRBN (10 mM in DMSO) into 995 μL of complete medium. Following the allotted time for proteasome inhibitor incubation, 50 μL of 50 μM sTCO-PEG2-CRBN was added directly to each well, for a final volume of 250 μL and final concentration of 10 μM of sTCO-PEG2-CRBN. The cells were then incubated overnight at 37° C. with 5% CO2 before lysis and western blot analysis.

mCherry-EGFP-Y151TetF [2] = assay: Degradation mechanism: thalidomide-OH pretreatment, cereblon-mediated degradation; format: cell-based; settings: pretreatment with 100 µM of Thal-OH, then sTCO-PEG2-CRBN
[3] = cited from earlier work
mCherry-EGFP-G134TetF = assay: In cellulo bioconjugation quantified with sTCO-CA and HaloTag; format: cell-based; settings: sTCO-CA then HaloTag
Protocol: (§1) FIGS. 1A-1B. Experimental workflow for the quantification of bioconjugation to UAA-bearing proteins expressed in cells. Following expression of the POI bearing a UAA at any surface position (e.g., A-E), the FIG. 1A) sTCO-chloroalkane ligand or FIG. 1B) sTCO-E3 ligase ligand, is added to the media and undergoes a selective bioconjugation with the UAA. Excess ligand is washed away and cells are FIG. 1A) lysed or FIG. 1B) incubated with sTCO-chloroalkane then lysed. The lysate is incubated with HaloTag protein and the bioconjugation is quantified via western blot.
(§2) Before comparing the degradation of different mCherry-EGFP mutants, validating the extent of bioconjugation to TetF at each position was required. A method for quantifying in cellulo protein bioconjugation that utilizes a strained trans-cyclooctene chloroalkane (sTCO-CA) to react with TetF and subsequently dimerize with the self-labeling enzyme, HaloTag, was previously […]. Using this technique, the extent of bioconjugation mCherry-EGFP-I129TetF (~90%) and mCherry-EGFP-G134TetF (~55%, FIG. 4D) was quantified. Bioconjugation to two new mCherry-EGFP-TetF mutants using the same method was also quantified (FIG. 7). […] By determining the extent of bioconjugation to TetF mutants across the surface of mCherry-EGFP, variations in degradation due to incomplete bioconjugation could be evaluated. […]

mCherry-EGFP-I129TetF = assay: as above; format: cell-based; settings: sTCO-CA then HaloTag
Protocol: as §1, §2

For O=C1C(=Cc2ccccc2)C(NC2CCCCC2)c2ccccc21 (stereo not drawn) [BCI], which “inhibition of MKP3” value (MKP3) is on record?
The value was “known allosteric inhibitor”.

What about the “inhibition of DUSP1” value (DUSP1) of the same compound?
The value was “inhibits DUSP1”.

For CC(C)C[C@@H](C=O)NC(=O)[C@H](CC(C)C)NC(=O)[C@H](CC(C)C)NC(=O)OCc1ccccc1 [MG132] (Cbz-Leu-Leu-Leu-aldehyde), which “effect of proteasome inhibitor pre-treatment on sTCO-PEG2-CRBN induced degradation” value (mCherry-EGFP-Y151TetF [1]) is on record?
Its value is “reduced”.

For O=C1CCC(N2C(=O)c3cccc(O)c3C2=O)C(=O)N1 (stereo not drawn) [Thal-OH, thalidomide-OH], which “effect of thalidomide-OH pretreatment on sTCO-PEG2-CRBN degradation” value (mCherry-EGFP-Y151TetF [2]) is on record?
The value was “reduced degradation”.

Which Second-order rate constant ([3]; Aqueous solvent, ax iso) does the source give for OC1CC/C=C\CCC1 (stereo not drawn) [a] here?
The Second-order rate constant was 80200 M⁻¹ s⁻¹.

What about the Second-order rate constant ([3]; Aqueous solvent, eq iso) of the same compound?
Its Second-order rate constant is 22600 M⁻¹ s⁻¹.

What about the Second-order rate constant ([3]; Mixture (Org water) 90:10) of the same compound?
Its Second-order rate constant is 2000 (90:10)^Ref 5 M^−1s^−1.

What about the Second-order rate constant ([3]; Organic solvent) of the same compound?
The Second-order rate constant was 1140^Ref 5 M^−1s^−1.

What does the source list for OCC1[C@@H]2C/C=C\CCC[C@@H]12 (stereo partly drawn) [b]?
Second-order rate constant ([3]; Aqueous solvent): 3300000^Ref 2 M^−1s^−1; Second-order rate constant ([3]; Organic solvent): 22000^Ref 3 M^−1s^−1

For OCC1O[C@H]2C/C=C\CCC[C@H]2O1 (stereo partly drawn) [c], which Second-order rate constant ([3]; Aqueous solvent, anti iso) is on record?
Its Second-order rate constant is 318000 M⁻¹ s⁻¹.

What about the Second-order rate constant ([3]; Aqueous solvent, syn iso) of the same compound?
The Second-order rate constant was 366000 M⁻¹ s⁻¹.

What about the Second-order rate constant ([3]; Mixture (Org water) 55:45) of the same compound?
Its Second-order rate constant is 167000 (55:45)^Ref 3 M^−1s^−1.

Which Second-order rate constant ([3]; Mixture (Org water) 55:45) does the source give for OCC1[C@@H]2CCC#CCC[C@@H]12 (stereo partly drawn) [d] here?
The Second-order rate constant was 1245 (55:45)^Ref 6 M^−1s^−1.

And the Second-order rate constant ([3]; Organic solvent)?
Its Second-order rate constant is 45^Ref 4 M^−1s^−1.

Which “effect of proteasome inhibitor pre-treatment on sTCO-PEG2-CRBN induced degradation” value (mCherry-EGFP-Y151TetF [1]) does the source give for CC[C@H](C)[C@H](NC(=O)[C@H]([C@@H](C)CC)N(C)C(C)=O)C(=O)N[C@H](C(=O)N[C@@H](CC(C)C)C(=O)[C@@]1(C)CO1)[C@@H](C)O [epoxomicin] here?
Its value is “reduced”.

Which Second-order rate constant ([3]; Aqueous solvent) does the source give for O=C(O)CC1CC2C=CC1C2 (stereo not drawn) [h] here?
Its Second-order rate constant is 1.9^Ref 9 M^−1s^−1.

Which Second-order rate constant ([3]; Mixture (Org water) 50:50) does the source give for C=Cc1ccccc1 [j] here?
Its Second-order rate constant is 0.05 (50:50)^Ref 11 M^−1s^−1.

With C=CCSC[C@H](N)C(=O)O [m] as the compound, how does the Second-order rate constant ([3]; Mixture (Org water) 50:50) read?
The Second-order rate constant was 0.002 (50:50)^Ref 13 M^−1s^−1.

With O=C(NCCOCCOCCCCCCCl)OCC1C2CC/C=C/CCC21 (stereo not drawn) [sTCO-CA] as the compound, how does the extent of bioconjugation (mCherry-EGFP-G134TetF) read?
Its extent of bioconjugation is ~ 55%.

And the extent of bioconjugation (mCherry-EGFP-I129TetF)?
Its extent of bioconjugation is ~ 90%.
